The results in this text go back to EP4741389A1, “KAT6 INHIBITOR” (Shanghai Qilu Pharmaceutical Research and Development …, priority 2023, dated 2025).

For one assay, the system named is ZR-75-1 cells. Put plainly: ZR-75-1 cell proliferation assay (CellTiter-Glo). To be noted: Homo sapiens, ZR-75-1, 240 h, total culture period of 10 days, read-out: ZR-75-1 Proliferation Inhibition IC50. The format is cell-based. In outline:
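ZR-75-1 cells were exposed to compound for 10 days in total at 37°C and 5% CO2, being trypsinized, counted and re-seeded every 5 days, with fresh compound added after each re-seeding. Viability was read by CellTiter-Glo luminescence, and IC50 was derived from a four-parameter logistic fit.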
In general terms: Cellular ATP, detected with luciferase, serves as a proxy for viable cell number.

The test system of assay [1] is human breast cancer ZR-75-1 cell xenografts. Put plainly: In vivo efficacy study in BALB/c nude mouse model with subcutaneous ZR-75-1 xenografts. Conditions: for T/C / TGI / Tumor Volume: 0.3 mg/kg; for T/C / TGI: based on tumor volume on day 21 post-administration; for Tumor Volume: day 21 post-administration, female BALB/c nude mice, 7 per group; for anti-tumor effects: ZR-75-1 xenograft model, tumor growth curves FIG. 2, result in words. An excerpt: IV. In vivo efficacy study of test drug Compound 2, Compound 5-P2, Compound 3, and Compound A in a BALB/c nude mouse model with subcutaneously implanted human breast cancer ZR-75-1 cell xenografts
The objective of this experiment is to evaluate the in vivo efficacy of the test drug Compound 2, Compound 5-P2, Compound 3, and Compound A in a BALB/c nude mouse model with subcutaneously implanted human breast cancer ZR-75-1 cell xenografts.
• Species: Mouse; • Strain: BALB/c nude mice; • Age and weight: 6-8 weeks old, weighing 19-26 grams; • Gender: Female; • Supplier: GemPharmatech Co., Ltd.; • Compound source: Compound A: [drawing 190] prepared with reference to patent CN114364672A.
Human breast cancer ZR-75-1 (ATCC, CRL-1500) cells were cultured in vitro as adherent cultures. The culture conditions were: 1640 medium supplemented with 10 vol% FBS, 100 U/mL penicillin, and 100 µg/mL streptomycin, incubated in a 37°C, 5% CO2 cell culture incubator. Routine passaging was performed twice a week. When cell confluence reached 80%-90% and the cell number met the requirements, cells were harvested, counted, and inoculated.
Three days before cell implantation, a 17β-estrogen pellet (0.36 mg) was implanted into the left dorsal side of each mouse. Starting one week after pellet implantation, animals were urinated 2-3 times per week. If necessary, animals were urinated daily.
A mixture containing 10×10^6 ZR-75-1 cells in 100 µL PBS and 100 µL Matrigel (final volume was 200 µL) was subcutaneously implanted into the right dorsal side (upper side) of each mouse. On day 18 after cell implantation, when the average tumor volume reached 138 mm^3, grouping and administration were initiated. Mice with tumor volumes ranging from 100 to 212 mm^3 were selected for the study. Mice were randomly assigned to groups based on body weight and tumor volume, with 7 mice per group. The day of grouping was designated as PG-D0, and administration for all groups started from PG-D0.
The experimental index is to investigate whether tumor growth is inhibited, delayed, or cured. Tumor diameters were measured three times per week using a vernier caliper. Tumor volume was calculated using the formula: V = 0.5a × b^2, where a and b represent the major and minor diameters of the tumor, respectively.
The anti-tumor efficacy of the compounds was evaluated using TGI (%) or the relative tumor proliferation rate T/C (%). TGI (%), reflects the tumor growth inhibition rate. TGI (%) was calculated as: TGI (%) = [1 - (Mean tumor volume of a treatment group at the end of administration - Mean tumor volume of the same treatment group at the start of administration) / (Mean tumor volume of the vehicle control group at the end of treatment - Mean tumor volume of the vehicle control group at the start of treatment)] × 100%.
Relative Tumor Proliferation Rate T/C (%): The calculation formula is as follows: T/C% = TRTV / CRTV ×100 % (TRTV: RTV of the treatment group; CRTV: RTV of the negative control group). The relative tumor volume (RTV) was calculated based on tumor measurement results using the formula RTV = Vt /V0, where V0 is the tumor volume of each mouse measured at the start of grouping and administration (i.e., d0), and Vt is the tumor volume of each mouse at a specific measurement time. The mean value for each group was then calculated. V0 and Vt correspond to tumor volume data from the same mouse.

Turning to `COc1ccc2c(c1S(=O)(=O)Nc1noc3cc(Cn4cccn4)cc(OC)c13)OCCCO2` [Compound 2, N-(6-((1H-Pyrazol-1-yl)methyl)-4-methoxybenzo[d]isoxazol-3-yl)-7-methoxy-3,4-dihyd ro-2H-benzo[b][1,4]dioxepine-6-sulfonamide], the IC50 with ZR-75-1 cells was determined as 3.2 nM. Moreover, in assay [1], the T/C (usually the ratio of treated to control) is 20.83%, the TGI is on record as 93.97%, the “Tumor Volume” value is reported as 182 ± 39 mm^3 and the anti-tumor effects result is on record as “more significant anti-tumor effects compared to Compound A”.
As to `COc1ccc2c(c1S(=O)(=O)Nc1noc3cc(Cn4cccn4)cc(OC)c13)OC[C@@H]1C[C@H]21` [Compound 5-P2, (1aR,7bS)-N-(6-((1H-Pyrazol-1-yl)methyl)-4-methoxybenzo[d]isoxazol-3-yl)-5-methoxy-1,1a,2,7b-tetrahydrocyclopropa[c]chromene-4-sulfonamide], the IC50 in the assay with ZR-75-1 cells turned out to be 0.1 nM. In addition, in assay [1], the T/C turned out to be 12.10%, the TGI was found to be 105.10%, the “Tumor Volume” value came to 102 ± 14 mm^3 and the anti-tumor effects result is reported as “more significant anti-tumor effects compared to Compound A”.
